Experimental data from patent publication US20170246111A1, “ACTIVE-LOADED PARTICULATE MATERIALS FOR TOPICAL ADMINISTRATION” (PHARMASOL GMBH, priority 2014, published 2017).

Tests used:
[1] = 40 min
Experimental: 35.0% azithromycin physical mixture was as well dispersed in Milli-Q® water to get a final concentration of azithromycin of 5.6% in vials. Furthermore, 5.6% coarse drug powder was suspended in Milli-Q® water for comparison. The samples were stored at 25° C. shaking with 100 rpm in an Innova® 4230 shaker for 40 minutes. To separate the dissolved drug, the samples were first centrifuged (17,968×g; 10 minutes) and subsequently the supernatant was filtered (50 nm pore size, Whatman® 110603 filter). The drug concentration in such obtained sample was determined by HPLC.

[2] = at 25° C. in water, Mauludin PhD thesis 2008; cited from earlier work

Row | Structure (SMILES) | saturation solubility in water [1] | saturation solubility Cs [2]
1 | CC[C@H]1OC(=O)[C@H](C)[C@@H](O[C@H]2C[C@@](C)(OC)[C@@H](O)[C@H](C)O2)[C@H](C)[C@@H](O[C@@H]2O[C@H](C)C[C@H](N(C)C)[C@H]2O)[C@](C)(O)C[C@@H](C)CN(C)[C@H](C)[C@@H](O)[C@]1(C)O [azithromycin raw drug powder, azithromycin] | 93 µg/mL | –
2 | COc1ccc([C@@H]2CC(=O)c3c(O)cc(O[C@@H]4O[C@H](CO[C@@H]5O[C@@H](C)[C@H](O)[C@@H](O)[C@H]5O)[C@@H](O)[C@H](O)[C@H]4O)cc3O2)cc1O [hesperidin raw powder, hesperidin] | – | about 20 μg/ml
